# According to PubChem BioAssay AID488890 (Southern Research Specialized Biocontainment Screening …, 2010):
# Records with an inconclusive call do not appear. Calls of active or inactive are those of the source. The rule behind the calls is not given here.
# Tested on: Mycobacterium tuberculosis non-replicating, growth inhibition
# Experiment: growth inhibition of non-replicating M. tuberculosis (AID 488890)
row,Structure (SMILES),IC50
1,CC1(C)CC(=O)c2cc(C(=O)NNc3ccccc3)c(=O)n(-c3ccccc3)c2C1,7.49 µM
2,Cc1ccc2nc(C)c3c(c2c1)SCC3,11.6 µM (inactive)
3,Cc1nc(/N=C(\N)NC(=O)NC2CCCCC2)nc2ccccc12,10.3 µM (inactive)
4,COC(=O)CN(C#N)c1nc(SC)nc(N(C)C)n1,15.9 µM (inactive)
5,Cc1nnc(N/N=C/c2ccc(Br)cc2)n1N,1.29 µM
6,O=C(O)COc1ccc2occ(C(=O)c3ccccc3)c2c1,6.46 µM
7,Cc1ccc(/C=N/NC(=O)c2ccncc2)o1,2.07 µM
8,O=C(O)CCCCCN1C(=O)/C(=C\c2ccncc2)SC1=S,11.2 µM (inactive)
9,O=C(CCN1CCC(c2cccs2)=N1)c1cccs1,4.15 µM
10,NC(N)=Nc1nc(-c2ccccc2)c2ccccc2n1,12.8 µM (inactive)
11,OC(CNCCc1ccc(C(F)(F)F)cc1)COc1cccc2ccccc12 (stereo unspecified),9.03 µM
12,Cc1occc1C(=O)N/N=C/c1ccc[nH]1,11.9 µM (inactive)
13,CC(C)OC(=O)c1cc(C(=O)c2cc(Cl)ccc2O)coc1=N,4.66 µM
14,Cc1[nH]n(-c2cccc(Cl)c2)c(=O)c1/C=N/n1c(C)nc2ccccc2c1=O,19.5 µM (inactive)
15,O=C(Nc1cccc(Cl)c1)C1COc2ccccc2O1 (stereo unspecified),7.86 µM
16,CCCCNC(=O)Nc1nnc(-c2ccc(Cl)cc2)o1,22.8 µM (inactive)
17,Cc1ccccc1C(=O)Nc1nnc(-c2ccco2)o1,4.97 µM
18,c1ccc(-c2n[nH]c(-c3ccccn3)n2)nc1,6.04 µM
19,c1ccc(/N=C2\N=C(Nc3ccccn3)c3ccccc32)nc1,< 0.1 µM
20,Cc1ccc(Oc2c(C(N)=O)cc([N+](=O)[O-])cc2[N+](=O)[O-])cc1,2.2 µM
21,N/C(=N/OC(=O)c1ccccc1Cl)c1ncc([N+](=O)[O-])s1,3.15 µM
22,Cc1ccc2nc(N(CCCN(C)C)C(=O)c3ccc4c(c3)CCCC4)sc2c1,14.5 µM (inactive)
23,CCCOC(=O)c1ccc(NC(=O)Cc2cccs2)cc1,24.1 µM (inactive)
24,Cc1ccc(-c2nc3ccccn3c2Nc2ccccc2)o1,8.4 µM

row,Structure (SMILES),IC50
1,O=C(OCC(=O)N1CCN(c2ccccc2)CC1)c1ccc2ccccc2n1,8.13 µM
2,CCOc1ccc(Nc2ccc([N+](=O)[O-])c3nonc23)cc1,1.72 µM
3,C/C(=N\NC(=O)c1ccccc1O)C1C(=O)c2ccccc2C1=O,0.64 µM
4,CN1CC=C(/C=C/c2ccc(-c3ccccc3)cc2)CC1,11.4 µM (inactive)
5,CC(/C=C/c1ccc2c(c1)OCO2)=N/NC(=O)C1COc2ccccc2O1 (stereo unspecified),4.54 µM
6,C#CCSc1nnc(-c2cccc3ccccc23)o1,3.46 µM
7,Cc1cc2nc(/N=C(\N)NC(=O)C(C)C)nc(C)c2cc1C,3.1 µM
8,O=C(COC(=O)c1cc(Cl)ccc1O)c1ccc2c(c1)OCO2,6.61 µM
9,O=C(CC(=O)c1ccccc1O)c1cccc(F)c1,8.89 µM
10,Cc1cccc(NCCC(=O)c2ccc([N+](=O)[O-])cc2)c1C,3.58 µM
11,COc1cccc(C(=O)OCC(=O)c2ccc(Br)s2)c1OC,9.02 µM
12,COc1ccc(NC(=O)c2cc3ccccc3o2)cc1,5.57 µM
13,COc1ccccc1NC(=O)C(=O)/C=C(\O)c1ccccc1,15.4 µM (inactive)
14,CC1(O)CC(c2ccc(Cl)cc2)=NN1C(=O)c1ccc([N+](=O)[O-])cc1 (stereo unspecified),0.18 µM
15,COc1cc(/C=C2/C(=O)NN(c3cccc(C)c3)C2=O)ccc1OC(=O)c1ccco1,5.53 µM
16,CN1c2ccsc2/C(=N/Nc2ccccc2)CS1(=O)=O,0.29 µM
17,COc1cc(CNC(C)(C)CO)cc(Br)c1OCc1ccc(Cl)cc1Cl,10 µM (inactive)
18,CCc1nnc(NC(=O)CN2CCN(c3ccccc3F)CC2)s1,29.2 µM (inactive)
19,C=CCn1c(=O)c(C(=O)Nc2cccnc2)c(O)c2ccccc21,7.58 µM
20,CCn1cc(C(=O)O)c(=O)c2cc(F)c(N3CCN(C(=S)NC(=O)c4ccccc4)CC3)cc21,16.8 µM (inactive)
21,CC(C)=CCN1CCN(CCC2=C(C)CCCC2(C)C)CC1CCO (stereo unspecified),7.56 µM
22,CCCCOc1ccc(-c2nnn(C(C)C(=O)OCC)n2)cc1 (stereo unspecified),1.57 µM
23,CC(C)c1ccc2c(c1)C(N1CCNCC1)Cc1ccc(F)cc1S2 (stereo unspecified),14.5 µM (inactive)
24,CCOC(=O)N1CCN(Cc2cc(Cl)c3cccnc3c2O)CC1,3.55 µM

row,Structure (SMILES),IC50
1,COc1ccc(C(=O)CCN2CCCCCC2)cc1,2.05 µM
2,CCOC(=O)c1cc(-c2c(Cl)cccc2Cl)no1,2.22 µM
3,O=C(Nc1nc2ccccc2[nH]1)c1cccc(Cl)c1,9.06 µM
4,CC(C)[C@@H]1CC[C@@H](C)C[C@H]1OC(=O)C[n+]1cc(-c2ccc(Cl)cc2)n2c1CCCCC2,2.18 µM
5,CCOC(=O)c1csc(-c2snnc2C)n1,5.09 µM
6,Cc1ccc2c(c1)c1c(n2CC(O)CNC2CCCCC2)CCCC1 (stereo unspecified),16.7 µM (inactive)
7,O=C(Nc1ccn(Cc2ccccc2)n1)c1ccc(F)cc1,14.8 µM (inactive)
8,COc1cc2c(cc1OC)CN(C(=O)c1ccc([N+](=O)[O-])o1)CC2,1.29 µM
9,COc1ccc(/C=N/Nc2cc(C)nc(-n3nc(C)cc3C)n2)cc1,3.25 µM
10,Cc1c(CN(C)C)c2c(n1Cc1ccccc1)C(=O)c1ccc(Br)cc1-2,16 µM (inactive)
11,O=C(Cc1ccc([N+](=O)[O-])cc1)N/N=C/c1ccc([N+](=O)[O-])o1,21.8 µM (inactive)
12,O=C(CCc1ccc(Oc2cc([N+](=O)[O-])cc([N+](=O)[O-])c2)cc1)N1CCCCC1,4.85 µM
13,Cc1cccc(C)c1NC(=O)COC(=O)CCc1c[nH]c2ccccc12,19.3 µM (inactive)
14,NCCOc1ccc(C23CC4CC(CC(C4)C2)C3)cc1,16 µM (inactive)
15,CC(C)(C)c1ccc(Cn2c(=N)n(CC(O)c3ccco3)c3ccccc32)cc1 (stereo unspecified),7.36 µM
16,CCCCN1CCC(O)(c2ccccc2)C(C(=O)c2ccccc2)C1 (stereo unspecified),4.86 µM
17,Cc1ccc(C(=O)C=CNNC(=O)c2ccccc2)cc1,2.15 µM
18,CCCCOc1ccc(CSCCN)cc1Cl,27.8 µM (inactive)
19,CC1CCCN(CCSc2ccc(Cl)cc2)C1 (stereo unspecified),5.18 µM
20,O=C1CC(N2CCSCC2)C(=O)N1CCc1ccccc1 (stereo unspecified),19.1 µM (inactive)
21,C[C@@H]1CN=C2N(CCNC(=O)CCC3CCCCC3)[C@H](Cc3ccc(O)cc3)CN21,18.9 µM (inactive)
22,Cc1[nH]n2c(=O)c3c(nc2c1-c1ccc(Cl)cc1)CCC3,3.4 µM
23,COc1ccc(C(=O)NNC(=S)NC(=O)c2cccc([N+](=O)[O-])c2)cc1,11.8 µM (inactive)
24,CCOC(=O)c1csc(COc2ccc(OC)cc2)n1,7.75 µM

row,Structure (SMILES),IC50
1,CCOC(=O)Cn1c(C)c(Br)c(=O)c2cccc(C)c21,3.76 µM
2,CCOc1cc(CNC(C)(C)CO)cc(Br)c1OCc1ccc(Cl)cc1Cl,10.8 µM (inactive)
3,O=C(Nc1sc2c(c1C(=O)O)CCCCC2)c1ccccc1F,15.6 µM (inactive)
4,Nc1nc2ccccc2n1CCOc1ccccc1Cl,7.58 µM
5,CCOC(=O)C1(O)CC(C)=NN1C(=O)c1cccc(Br)c1 (stereo unspecified),1.42 µM
6,CCCCN(CC)CCNC(=O)c1cc2c(-c3ccc(Cl)cc3)nn(C)c2s1,8.57 µM
7,O=C(NN=C1C2CC3CC1CC(Cl)(C3)C2)c1cccs1,23.7 µM (inactive)
8,COC(=O)c1ccccc1Sc1ncnc2onc(C)c12,6.54 µM
9,COc1ccc2nc(C)cc(N/N=C/c3ccc(F)cc3)c2c1,7.75 µM
10,O=C(Nc1ccc(N2CCN(C(=O)c3ccco3)CC2)c(Cl)c1)c1cccs1,9.56 µM
11,CCCN(CCC)CCNC(=O)c1cc2c(-c3ccc(Cl)cc3)nn(C)c2s1,22.5 µM (inactive)
12,CC(C)CCCn1c(O)c(/C=C2/C=CC=N2)c(=O)[nH]c1=O,0.27 µM
13,O=C(COc1ccc2ccccc2c1)N1CCCC1,14.7 µM (inactive)
14,O=C(NNc1c(F)c(F)cc(F)c1F)c1cc2ccccc2oc1=O,27.5 µM (inactive)
15,COc1ccc(C(=O)Nc2nnc(C3=COCCO3)o2)cc1,7.69 µM
16,Cn1cnc([N+](=O)[O-])c1S(=O)(=O)c1cccc(Cl)c1,4.5 µM
17,COC(=O)CCSCc1cn2cc(Cl)ccc2n1,32 µM (inactive)
18,O=C(Oc1ccccc1)c1ccc(COC(=O)c2cnccn2)cc1,10.7 µM (inactive)
19,Cc1cc(N/N=C/c2ccccc2[N+](=O)[O-])nc(-n2nc(C)cc2C)n1,1.96 µM
20,CC(=O)CC1(OC(C)=O)C(=O)N(C)c2ccccc21 (stereo unspecified),21.5 µM (inactive)
21,CCOc1ccc(C(=O)Nc2nc3ccccc3[nH]2)cc1OCC,9.11 µM
22,CC(NC(=O)COc1ccc(-c2ccccc2)cc1)C1CCCO1 (stereo unspecified),8.2 µM
23,Cc1ccc2[nH]c3c(c2c1)CCCC3NCCO (stereo unspecified),13.7 µM (inactive)
24,Cc1c(Cl)cccc1-c1ccc(CNCc2ccccn2)o1,4.58 µM

row,Structure (SMILES),IC50
1,Cc1ccc(NC(=O)COC(=O)CCc2c[nH]c3ccccc23)cc1[N+](=O)[O-],4.83 µM
2,O=C(N/N=C(\c1ccccc1)c1cccnc1)c1cccc(F)c1,3.88 µM
3,Cc1cc(C)n(CC(=O)N/N=C/c2ccc([N+](=O)[O-])s2)n1,24.4 µM (inactive)
4,O=C1NC2(CCC3(CC2)OCCO3)NN1c1ccc(Cl)cc1,0.84 µM
5,CCCCOC(=O)C1CCCC(C(=O)OCCCC)N1 (stereo unspecified),4.91 µM
6,CCCCOC(=O)c1ccc(NC(=O)c2nn(C)cc2Br)cc1,20.4 µM (inactive)
7,Oc1c(Br)cc(Br)cc1/C=N/c1nccs1,21.2 µM (inactive)
8,Cc1nc2c(=O)n(C)c(=O)n(C)c2nc1Cl,10.3 µM (inactive)
9,O=C(Nc1ccccc1C(=O)Nc1nnc(C(F)(F)F)s1)c1ccccc1,1.27 µM
10,NC(=O)c1ccc(-c2ccc(Br)cc2)o1,1.93 µM
11,N#CC1=C(N)Oc2c(ccc3cccnc23)C1c1ccccc1 (stereo unspecified),33.9 µM (inactive)
12,COc1cccc(-c2nc(C=O)cs2)c1,37.2 µM (inactive)
13,N[C@@H](Cc1ccccc1)c1nnc(SC/C=C/c2ccccc2)o1,3.49 µM
14,Cc1ccc(-c2nnc(C)c(N3CCCC3)n2)cc1,8.94 µM
15,CCCn1c(O)c(N=NC(=O)c2ccco2)c2ccccc21,14.2 µM (inactive)
16,Cc1cccc(NC(=O)CCSc2nnc(Cc3ccccc3)o2)c1,4.09 µM
17,O=C(N/N=C/c1c(O)ccc2ccccc12)c1ccc(Br)o1,< 0.1 µM
18,O=C(OCC(=O)N1CCN(c2ccccc2)CC1)c1cnc(Cl)c(Cl)c1,4.72 µM
19,C/C(=N\Nc1nc2ccccc2nc1C)c1ccccc1O,1.65 µM
20,Cc1ccc2c(C)ccc(O)c2n1,5.18 µM
